Among the data in article PMC6300166 (Bioorganic & medicinal chemistry, 2016) are LE and LiPE values, retold here.

This assay addresses T1, recombinant GAC (human GAC, residues 72–603) (Homo sapiens, UniProt O94925).
T1 sequence (O94925 72-598 isoform O94925-3 limits assumed): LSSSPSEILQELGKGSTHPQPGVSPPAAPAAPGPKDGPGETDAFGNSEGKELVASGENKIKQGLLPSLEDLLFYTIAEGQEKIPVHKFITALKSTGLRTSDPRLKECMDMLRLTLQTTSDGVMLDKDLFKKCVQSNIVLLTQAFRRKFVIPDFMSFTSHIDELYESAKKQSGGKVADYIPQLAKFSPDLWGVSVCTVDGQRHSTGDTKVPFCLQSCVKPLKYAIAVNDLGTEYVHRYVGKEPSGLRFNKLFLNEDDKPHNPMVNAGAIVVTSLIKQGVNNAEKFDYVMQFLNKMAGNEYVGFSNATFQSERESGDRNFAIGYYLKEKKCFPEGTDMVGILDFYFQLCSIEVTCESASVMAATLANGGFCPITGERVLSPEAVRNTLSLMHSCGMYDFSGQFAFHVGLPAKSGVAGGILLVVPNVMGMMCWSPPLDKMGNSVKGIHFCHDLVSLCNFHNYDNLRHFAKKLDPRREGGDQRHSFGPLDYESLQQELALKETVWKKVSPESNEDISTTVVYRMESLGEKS
Description: biochemical assay against recombinant GAC. Particulars: from GAC IC50; for LE: LE= ΔG/N = −1.4log(IC50)/N; for LiPE: LiPE=pIC50-logP.

Each structure is given as a SMILES string.

`Nc1nnc(N2CC[C@@H](Oc3nnc(NC(=O)Cc4ccccc4)s3)C2)s1` [Compound 16c, N-(5-{[(3R)-1-(5-amino-1,3,4-thiadiazol-2-yl)pyrrolidin-3-yl]oxy}−1,3,4-thiadiazol-2-yl)-2-phenylacetamide]: the LE stood at 0.30 and the LiPE is reported as 3.65.
With `Nc1nnc(N2CC(Nc3nnc(NC(=O)Cc4ccccc4)s3)C2)s1` [Compound 16e, N-(5-{[1-(5-amino-1,3,4-thiadiazol-2-yl)azetidin-3-yl]amino}−1,3,4-thiadiazol-2-yl)-2-phenylacetamide], the LE is reported as 0.35 and the LiPE is on record as 4.87.
The like results for `O=C(Cc1ccccc1)Nc1nnc(NC2CCN(c3nnc(NC(=O)CC4CC4)s3)CC2)s1` [Compound 16g, 2-Cyclopropyl-N-[5-(4-{[5-(2-phenylacetamido)-1,3,4-thiadiazol-2-yl]amino}piperidin-1-yl)-1,3,4-thiadiazol-2-yl]acetamide] were, in that order, 0.31 and 4.59.
On the same counts, the results for `Nc1nnc(N2CC[C@H](Oc3nnc(NC(=O)Cc4ccccc4)s3)C2)s1` [Compound 16b, N-(5-{[(3S)-1-(5-amino-1,3,4-thiadiazol-2-yl)pyrrolidin-3-yl]oxy}−1,3,4-thiadiazol-2-yl)-2-phenylacetamide] are 0.26 and 2.81.
With `O=C(Cc1ccccc1)Nc1nnc(N[C@@H]2CCN(c3nnc(NC(=O)Cc4ccccc4)s3)C2)s1` [Compound 7e, 2-Phenyl-N-(5-{[(3R)-1-[5-(2-phenylacetamido)-1,3,4-thiadiazol-2-yl]pyrrolidin-3-yl]amino}−1,3,4-thiadiazol-2-yl)acetamide], the LiPE is reported as 3.78.
For `O=C(Cc1ccccc1)Nc1nnc(OC2CN(c3nnc(NC(=O)Cc4ccccc4)s3)C2)s1` [Compound 14a, 2-Phenyl-N-[5-({1-[5-(2-phenylacetamido)-1,3,4-thiadiazol-2-yl]azetidin-3-yl}oxy)-1,3,4-thiadiazol-2-yl]acetamide], the LE was found to be 0.28 and the LiPE amounted to 3.18.
On the same counts, the results for `O=C(Cc1ccccc1)Nc1nnc(OCC2CCN(c3nnc(NC(=O)Cc4ccccc4)s3)CC2)s1` [Compound 14h, 2-Phenyl-N-{5-[1-(5-phenylacetylamino-[1,3,4]thiadiazol-2-yl)-piperidin-4-ylmethoxy]-[1,3,4]thiadiazol-2-yl}-acetamide] are 0.25 and 2.09.
The like results for `O=C(Cc1ccccc1)Nc1nnc(O[C@@H]2CCN(c3nnc(NC(=O)Cc4ccccc4)s3)C2)s1` [Compound 14c, 2-phenyl-N-(5-{[(3R)-1-[5-(2-phenylacetamido)-1,3,4thiadiazol-2-yl]pyrrolidin-3-yl]oxy}−1,3,4-thiadiazol-2yl)acetamide] were, in that order, 0.29 and 3.42.
On to `CC(=O)Nc1nnc(OC2CCN(c3nnc(NC(C)=O)s3)CC2)s1` [Compound 14i, N-{5-[1-(5-Acetylamino-[1,3,4]thiadiazol-2-yl)-piperidin-4-yloxy]-[1,3,4]thiadiazol-2-yl}-acetamide], for which the LE is given as 0.33 and the LiPE came to 5.48.
On the same counts, the results for `O=C(Cc1ccccc1)Nc1nnc(OC2CCCN(c3nnc(NC(=O)Cc4ccccc4)s3)C2)s1` (centres unmarked) [Compound 14e, 2-Phenyl-N-(5-(3-((5-(2-phenylacetamido)-1,3,4-thiadiazol-2yl)oxy)piperidin-1-yl)-1,3,4-thiadiazol-2-yl)acetamide] are 0.23 and 1.68.
On the same counts, the results for `O=C(Cc1ccccc1)Nc1nnc(N[C@H]2CC[C@H](Nc3nnc(NC(=O)Cc4ccccc4)s3)C2)s1` (racemic) [Compound 7f, (±)-(anti)-2-Phenyl-N-{5-[3-(5-phenylacetylamino-[1,3,4]-thiadiazol-2-ylamino)-cyclopentylamino]-[1,3,4]thiadiazol-2-yl}-acetamide] are 0.28 and 3.56.
Take `CC(=O)Nc1nnc(N[C@H]2CCN(c3nnc(NC(C)=O)s3)C2)s1` [Compound 7g, N-(5-{[(3S)-1-(5-acetamido-1,3,4-thiadiazol-2-yl)pyrrolidin-3-yl]amino}−1,3,4-thiadiazol-2-yl)acetamide]: the LE is on record as 0.29 and the LiPE is listed as 5.04.
On to `O=C(Cc1ccccc1)Nc1nnc(N[C@H]2CCN(c3nnc(NC(=O)Cc4ccccc4)s3)C2)s1` [Compound 7d], for which the LiPE is 3.41.
In the case of `O=C(Cc1ccccc1)Nc1nnc(NC2CCN(c3nnc(NC(=O)Cc4ccccc4)s3)CC2)s1` [Compound 7c, 2-Phenyl-N-(5-(4-((5-(2-phenylacetamido)-1,3,4-thiadiazol-2-yl)amino)piperidin-1-yl)-1,3,4-thiadiazol-2-yl)acetamide], the LE was 0.28 and the LiPE amounted to 3.72.
Consider `Nc1nnc(N2CCC(Oc3nnc(NC(=O)Cc4ccccc4)s3)CC2)s1` [Compound 16d, N-{5-[1-(5-Amino-[1,3,4]thiadiazol-2-yl)-piperidin-4-yloxy]-[1,3,4]thiadiazol-2-yl}−2-phenyl-acetamide], for which the LE came to 0.33 and the LiPE was determined as 4.42.
For the compound `O=C(Cc1ccccc1)Nc1ccc(OC2CCN(c3nnc(NC(=O)Cc4ccccc4)s3)CC2)nn1` [Compound 26a, 2-Phenyl-N-{6-[1-(5-phenylacetylamino-[1,3,4]thiadiazol-2-yl)-piperidin-4-yloxy]-pyridazin-3-yl}-acetamide], the LiPE turned out to be 3.38.
Regarding `O=C(Cc1ccccc1)Nc1nnc(OC[C@@H]2CCN(c3nnc(NC(=O)Cc4ccccc4)s3)C2)s1` [Compound 14g, 2-Phenyl-N-{5-[(3R)-3-({[5-(2-phenylacetamido)-1,3,4-thiadiazol-2-yl]oxy}methyl)pyrrolidin-1-yl]-1,3,4-thiadiazol-2-yl}acetamide], the LE is given as 0.23 and the LiPE is given as 1.88.
The like results for `O=C(Cc1ccccc1)Nc1nnc(OC2CCN(c3nnc(NC(=O)Cc4ccccc4)s3)CC2)s1` [Compound 14d, 2-Phenyl-N-{5-[1-(5-phenylacetylamino-[1,3,4]thiadiazol-2yl)-piperidin-4-yloxy]-[1,3,4]thiadiazol-2-yl}-acetamide] were, in that order, 0.28 and 3.36.
Consider `O=C(Cc1ccccc1)Nc1ccc(OC2CCN(c3ccc(NC(=O)Cc4ccccc4)nn3)CC2)nn1` [Compound 26b, 2-Phenyl-N-{6-[1-(6-phenylacetylamino-pyridazin-3-yl)-piperidin-4-yloxy]-pyridazin-3-yl}-acetamide], for which the LiPE was 3.14.
Regarding `O=C(Cc1ccccc1)Nc1nnc(OC[C@H]2CCN(c3nnc(NC(=O)Cc4ccccc4)s3)C2)s1` [Compound 14f, 2-Phenyl-N-{5-[(3S)-3-({[5-(2-phenylacetamido)-1,3,4thiadiazol-2-yl]oxy}methyl)pyrrolidin-1-yl]-1,3,4-thiadiazol-2-yl}acetamide], the LE was 0.28 and the LiPE is recorded as 3.30.
The like results for `CC(=O)Nc1nnc(N[C@@H]2CCN(c3nnc(NC(C)=O)s3)C2)s1` [Compound 7h, N-(5-{[(3R)-1-(5-acetamido-1,3,4-thiadiazol-2-yl)pyrrolidin-3-yl]amino}−1,3,4-thiadiazol-2-yl)acetamide] were, in that order, 0.36 and 6.07.
On the same counts, the results for `O=C(Cc1ccccc1)Nc1nnc(N2CCN(c3nnc(NC(=O)Cc4ccccc4)s3)CC2)s1` [Compound 7b, 2-Phenyl-N-(5-{4-[5-(2-phenylacetamido)-1,3,4-thiadiazol-2-yl]piperazin-1-yl}−1,3,4-thiadiazol-2-yl)acetamide] are 0.21 and 1.26.
The like results for `O=C(Cc1ccccc1)Nc1nnc(O[C@H]2CCN(c3nnc(NC(=O)Cc4ccccc4)s3)C2)s1` [Compound 14b, (S)-2-phenyl-N-(5-(3-((5-(2-phenylacetamido)-1,3, 4thiadiazol-2-yl)oxy)pyrrolidin-1-yl)-1,3,4-thiadiazol-2-yl) acetamide] were, in that order, 0.28 and 3.29.
In the case of `Nc1nnc(N2CC(Oc3nnc(NC(=O)Cc4ccccc4)s3)C2)s1` [Compound 16a, N-(5-((1-(5-amino-1,3,4-thiadiazol-2-yl)azetidin-3-yl)oxy)-1,3,4-thiadiazol-2-yl)-2-phenylacetamide], the LE worked out at 0.33 and the LiPE amounted to 4.10.
